The record followed here is US6541621B1, “Hypoxia inducible promoter” (Purdue University Research Foundation, priority 1997, dated 2003).

“Also recorded” adds a separate entry of the source.

Data set [1] relates to rice suspension cells. Description: GUS activity of promoter-uidA construct shot into rice suspension cells. In kind it is cell-based. Conditions: 2.38 kb region fused to the uidA gene.
The test system of the next data set is pdc genes. Kind of data set: Northern blot of total RNA from suspension cells under anaerobic conditions with or without cycloheximide, common pdc probe. It counts as cell-based, rice. Conditions: 100 μM cycloheximide, suspension cells (Radon variety). The protocol: Two-week-old uniform seedlings of rice (IR54 variety) were transferred to two liter flasks and subjected to anaerobic conditions. Seedlings were submerged in distilled water through which nitrogen gas was continuously bubbled. The anaerobic treatment was conducted in the dark at 25° C. Control seedlings were maintained in the dark at 25° C. Tissues were harvested and immersed in liquid nitrogen. Extraction of RNA was carried out according to the procedure of Logmann et al. (Anal Biochem 163: 16-20, 1987) with modifications. The frozen tissue (2 gm) was ground in liquid nitrogen in an autoclaved mortar and pestle, and transferred to autoclaved plastic centrifuge tubes. Extraction buffer (4M guanidine hydrochloride, 20 mM MES, 20 mM EDTA, 4 ml/g tissue) was added to each tube. After vigorous shaking and complete mixing the suspension was extracted once with phenol:chloroform:isoamyl alcohol (25:24:1) and centrifuged for 45 minutes at room temperature at 10,000 rpm in a Beckman centrifuge using JA-20 rotor. […] The RNA sample was subsequently washed with 80% ethanol and dissolved in DEPC-water after drying, and quantified spectrophotometrically. […]

For data set [2], the system named is Alcohol dehydrogenase (Adh) gene. Kind of data set: Northern blot of total RNA from suspension cells with or without cycloheximide, maize Adh probe. It counts as cell-based, rice. Conditions: for Adh transcripts: cycloheximide in the presence of O2, suspension cells. The protocol:
Two-week-old uniform seedlings of rice (IR54 variety) were transferred to two liter flasks and subjected to anaerobic conditions. Seedlings were submerged in distilled water through which nitrogen gas was continuously bubbled. The anaerobic treatment was conducted in the dark at 25° C. Control seedlings were maintained in the dark at 25° C. Tissues were harvested and immersed in liquid nitrogen. Extraction of RNA was carried out according to the procedure of Logmann et al. (Anal Biochem 163: 16-20, 1987) with modifications. The frozen tissue (2 gm) was ground in liquid nitrogen in an autoclaved mortar and pestle, and transferred to autoclaved plastic centrifuge tubes. Extraction buffer (4M guanidine hydrochloride, 20 mM MES, 20 mM EDTA, 4 ml/g tissue) was added to each tube. After vigorous shaking and complete mixing the suspension was extracted once with phenol:chloroform:isoamyl alcohol (25:24:1) and centrifuged for 45 minutes at room temperature at 10,000 rpm in a Beckman centrifuge using JA-20 rotor. Then 0.2 volumes of 1 M acetic acid [diethyl pyrocarbonate (DEPC) -treated] were added to the supernatant to acidify the contents, and the RNA was precipitated by adding 0.7 volumes of ethanol after 1 hour incubation at −80° C. following centrifugation at 10,000 rpm for 10 minutes. The RNA pellet was subsequently dissolved in DEPC-treated water and reprecipitated using ⅓ volume of 8 M LiCl (overnight at 4° C.). The RNA sample was subsequently washed with 80% ethanol and dissolved in DEPC-water after drying, and quantified spectrophotometrically. Suspension cultures of Radon variety were also treated in the same way under anaerobic conditions. Cycloheximide was added at a final concentration of 100 μM, and anaerobic conditions were applied for various time periods after 30 minutes pretreatment. RNA was isolated using the same procedure described above.
Ten μg of total RNA isolated from suspension cells (Radon variety) was loaded in each lane and was resolved in 1.2% formaldehyde-agarose gel according to standard procedures. […]

The test system of data set [3] is rice suspension cells. Kind of data set: Protein synthesis in rice suspension cells. In kind it is cell-based. Particulars: cycloheximide at 20 to 300 μM.

With “2.38 kb region: about 2.38 kb 5' upstream region of the rice pdc2 gene (hypoxia inducible promoter), fused to the uidA gene”, in the data set with rice suspension cells [1], the GUS activity entry is reported as “showed GUS activity”.
For the compound `C[C@@H]1C[C@@H]([C@H](O)CC2CC(=O)NC(=O)C2)C(=O)[C@@H](C)C1` [cycloheximide], in the data set on pdc genes, the “induction of pdc genes” value is “reduce the induction of pdc genes; also recorded: reduced induction”. Also, the “induction of Adh gene” value in data set [2] (100 μM cycloheximide, anaerobic conditions, suspension cells) is recorded as “down-regulated; also recorded: reduced induction”. For the same compound, the Adh transcripts result in data set [2] is recorded as “induced Adh transcripts”; in data set [2] (listed as Cycloheximide) it was “induced Adh messages”. The protein synthesis entry with rice suspension cells [3] was “reduce protein synthesis”.
